“And” between values parts separate entries of the source, which are not always exact repeats. Identical values can stand only once.
How the values were obtained:
[1] = system: SARS-CoV-2 live virus (Delta strain); assay: microbe, parasite or virus in culture; type: cell-based
PLpro = PLpro (Severe acute respiratory syndrome coronavirus 2 (2019-nCoV) (SARS-CoV-2), UniProt P0DTD1); assay: Assay for PLpro inhibitory activity (Ub-AMC fluorescence; single point inhibition test and IC50 determination); type: biochemical; settings: for IC50: fluorescence measured after 15 min of reaction; for inhibition at 1 µM: read-out: inhibition of PLpro (1 μM), 1 μM test compound, 100 nM PLpro, 10 μM Ub-AMC, 37° C. 30 min
[2] = Severe acute respiratory syndrome coronavirus 2, Calu-3, 48 h

Cc1ccc(N2CC(N(C)C)C2)cc1C(=O)NC1(c2ccc(F)c3ncccc23)CC1 [Example C26]
Inhibition rate/% ([1]; 3.125 nM, Calu-3 cells, Delta strain, 48 h, three replicate values): 2.076% and 45.3104% and −0.0016%
Inhibition rate/% ([1]; 6.25 nM, Calu-3 cells, Delta strain, 48 h, three replicate values): 37.9405% and 58.6715% and 67.2927%
Inhibition rate/% ([1]; 12.5 nM, Calu-3 cells, Delta strain, 48 h, three replicate values): −4.0599% and 50.6792% and 17.0436%
Inhibition rate/% ([1]; 25 nM, Calu-3 cells, Delta strain, 48 h, three replicate values): −64.656% and 17.2863% and 31.5856%
Inhibition rate/% ([1]; 50 nM, Calu-3 cells, Delta strain, 48 h, three replicate values): 92.4972% and 64.3219% and 67.0889%
Inhibition rate/% ([1]; 100 nM, Calu-3 cells, Delta strain, 48 h, three replicate values): 93.9064% and 96.0939%
Inhibition rate/% ([1]; 200 nM, Calu-3 cells, Delta strain, 48 h, three replicate values): 99.5887% and 99.6848%
Inhibition rate/% ([1]; 400 nM, Calu-3 cells, Delta strain, 48 h, three replicate values): 99.9327% and 99.8544%
EC50 [1, 2]: 36.3 ± 4.11 nM
EC90 [1, 2]: 73.1 ± 7.23 nM
inhibition at 0.1 µM ([1]; Severe acute respiratory syndrome coronavirus 2, Calu-3, 48 h, 100 nM, Calu-3 cells, Delta strain, 48 h, three replicate values, read-out: Inhibition rate/%): 92.2%
inhibition at 0.2 µM ([1]; Severe acute respiratory syndrome coronavirus 2, Calu-3, 48 h, 200 nM, Calu-3 cells, Delta strain, 48 h, three replicate values, read-out: Inhibition rate/%): 99.9%
inhibition at 0.4 µM ([1]; Severe acute respiratory syndrome coronavirus 2, Calu-3, 48 h, 400 nM, Calu-3 cells, Delta strain, 48 h, three replicate values, read-out: Inhibition rate/%): 100%
inhibition of SARS-CoV-2 live virus infecting human cells (in words) ([1]; in vitro experiment): can effectively inhibit SARS-CoV-2 live virus from infecting human cells
IC50 (PLpro): 38.3 ± 5.27 nM
inhibition at 1 µM (PLpro): 95.9%

Cc1ccc(N2CC(N(C)C)C2)cc1C(=O)NC1(c2ccc(C)c3ncccc23)CC1 [Example C75]
IC50 (PLpro): 4.71 ± 1.38 nM
inhibition at 1 µM (PLpro): 99.4%

COc1ccc(C2(NC(=O)c3cc(N4CC(N(C)C)C4)ccc3C)CC2)c2cccnc12 [Example C76]
IC50 (PLpro): 15.9 ± 3.25 nM
inhibition at 1 µM (PLpro): 99.6%

Cc1ccc(N2CC(N(C)C)C2)cc1C(=O)NC1(c2cccc3c2OCCO3)CC1 [Example C77]
inhibition at 1 µM (PLpro): 63%

Cc1ccc(N2CC(N(C)C)C2)cc1C(=O)NC1(c2cccc3c2OCO3)CC1 [Example C78]
inhibition at 1 µM (PLpro): 25.4%

Cc1ccc(Br)cc1/C=N/C1(c2ccc(F)c3ncccc23)CC1 [Example C79]
inhibition at 1 µM (PLpro): 16.5%

Cc1ccc(N2CC(N(C)C)C2)cc1/C=N/C1(c2ccc(F)c3ncccc23)CC1 [Example C80]
inhibition at 1 µM (PLpro): 11.9%

Cc1ccc(N2CC(CN)C2)cc1C(=O)NC1(c2ccc(F)c3ncccc23)CC1 [Example C81]
inhibition at 1 µM (PLpro): 37.1%

Cc1ccc(N2CC(C(C)(C)N)C2)cc1C(=O)NC1(c2ccc(F)c3ncccc23)CC1 [Example C82]
inhibition at 1 µM (PLpro): 8.2%

Cc1ccc(N2CC(CN(C)C)C2)cc1C(=O)NC1(c2ccc(F)c3ncccc23)CC1 [Example C83]
inhibition at 1 µM (PLpro): 24.2%

Cc1ccc(N2CC(N(C)C)C2)cc1CNC1(c2ccc(F)c3ncccc23)CC1 [Example C85]
inhibition at 1 µM (PLpro): 45.7%

Cc1ccc(N)cc1CNC1(c2ccc(F)c3ncccc23)CC1 [Example C86]
inhibition at 1 µM (PLpro): 33.5%

Cc1ccc(N)cc1C(=O)NC1(c2ccc(F)c3ncccc23)CC1 [Example C87]
inhibition at 1 µM (PLpro): 23.1%

Cc1ccc(N2CC(N(C)C)C2)cc1C(=O)NC1(c2ccc(N(C)C)c3ccccc23)CC1 [Example C88]
IC50 (PLpro): 175 nM
inhibition at 1 µM (PLpro): 96.2%

Cc1ccc2c(C3(NC(=O)c4cc(N5CC(N(C)C)C5)ccc4C)CC3)ccc(F)c2n1 [Example C89]
IC50 (PLpro): 119 nM
inhibition at 1 µM (PLpro): 82%

[2H]C1([2H])C(N(C)C)C([2H])([2H])N1c1ccc(C)c(C(=O)NC2(c3ccc(F)c4ncccc34)CC2)c1 [Example C90]
IC50 (PLpro): 69.8 nM
inhibition at 1 µM (PLpro): 85%

Cc1ccc(N2CC(N(C)C)C2)cc1C(=O)NC1(c2cccc3c2ccn3C)CC1 [Example C91]
inhibition at 1 µM (PLpro): 71%

From patent publication US20250289826A1, “PLPRO PROTEIN INHIBITOR, AND PREPARATION METHOD AND APPLICATION THEREOF” (priority 2022, published 2025)
